Data on eight compounds can be found in PMC9821237, “Spectroscopic Characterization and Biological Activity of Hesperetin Schiff Bases and Their Cu(II) Complexes” (International Journal of Molecular Sciences, 2023).

Like-named read-outs stand apart in the source and are kept apart here. Marks after values point to notes of the source that are not given here.

The subject of data set [1] is HeLa cells. Nature of the data set: Neutral comet assay, DNA double-strand breaks (DSBs). The note with it: 50 µM. In kind it is cell-based, human. As to the method:
The ability of tested compounds (at concentration of 50 µM) to induce DNA double-strand breaks (DSBs) in model HeLa cells was evaluated by the neutral comet assay according to Błasiak et al. (2012). In this version of the comet assay electrophoresis ran in a buffer consisting of 100 mM Tris and 300 mM sodium acetate at pH 9.0 (with glacial acetic acid). Electrophoresis was conducted for 60 min, after a 20 min equilibrium period, at an electric field strength of 0.41 V/cm (50 mA) at 4 °C. The slides were then proceeded as described in the “Single-cell gel electrophoresis assay” section.

The subject of data set [2] is HeLa cells. Nature of the data set: Comet assay with endonuclease III, oxidative DNA damage. It counts as cell-based, human. To be noted: 50 µM, net damage recognised by Endo III (oxidative DNA damage). The procedure: Oxidative DNA damage was evaluated with the DNA repair enzyme–endonuclease III (Endo III, New England Biolabs Inc., Germany) in model HeLa cells. The procedure was performed according to [67]. To estimate the ability of the enzyme to recognize oxidized DNA bases, the cells were incubated either with tested compounds (at concentration of 50 µM), or hydrogen peroxide (50 µM), lysed and post-treated with Endo III. After lysis slides were washed three times in an enzyme buffer (composed of 40 mM HEPES-KOH, 0.1 KCl, 0.5 mM EDTA, 0.2 mg/mL bovine serum albumin, pH 8.0) and drained, and the agarose was covered with 25 µL of either enzyme buffer or enzyme at 1 µg/mL in buffer, sealed with a cover glass and incubated for 30 min at 37°C. Further steps were described above. To determine the net value of DNA damage recognized by the enzyme, the DNA damage observed in the absence of the enzyme was subtracted from that measured in the presence of it.

In data set [3] the test system is HeLa cells. Nature of the data set: Alkaline comet assay, basal endogenous DNA damage. To be noted: 1 h, mean ± S.E.M.
Data set [4] relates to Caco-2 cells. Nature of the data set: Alkaline comet assay, basal endogenous DNA damage. To be noted: Caco-2, 50 µM, 1 h, mean ± S.E.M.
Another data set has as its system LLC-PK1 cells. Nature of the data set: Alkaline comet assay, basal endogenous DNA damage. To be noted: LLC-PK1, 50 µM, 1 h, mean ± S.E.M.
The subject of data set [5] is Caco-2 cells. To be noted: human, 1 h, 50 µM.

As for `COc1ccc(C2C/C(=N\NC(=O)c3ccncc3)c3c([O][Cu][O]C(C)=O)cc(O)cc3O2)cc1O` (stereo not drawn) [CuHIN, (E)-acetoxy((7-hydroxy-2-(3-hydroxy-4-methoxyphenyl)-4-(2-isonicotinoylhydrazono)chroman-5-yl)oxy)copper], the “Mean DNA (%) in Comet Tail (±S.E.M.) of HeLa Cells, DSBs” value (from here on “Mean DNA (%) in Comet Tail … DSBs”) with HeLa cells [1] was 7.7 ± 3.6 ^a %. Moreover, the “Mean DNA (%) in Comet Tail (±S.E.M.) of HeLa Cells, Endo III” value (“Mean DNA (%) in Comet Tail … Endo III” below) with HeLa cells [2] is on record as 12.2 ± 4.2 ^a %.
As to `OO` [hydrogen peroxide, reference compound], the “Mean DNA (%) in Comet Tail … Endo III” value with HeLa cells [2] is given as 26.2% ± 4.6%. The “DNA damage, percentage of DNA in the comet tail” value (shortened to “DNA damage, percentage of DNA”) was 50.3% ± 0.6% with HeLa cells [3] (50 µM), 42.0% ± 3.6% with Caco-2 cells [4] and 54.1% ± 0.2% in the data set with LLC-PK1 cells.
With `COc1ccc(C2CC(=NNC(N)=S)c3c(O)cc(O)cc3O2)cc1O` (stereo not drawn) [HTSC, N-[2,3-dihydro-5,7-dihydroxy-2-(3-hydroxy-4-methoxyphenyl)chromen-4-ylidene]thiosemicarbazide], in the data set with HeLa cells [1], the “Mean DNA (%) in Comet Tail … DSBs” value is 13.5 ± 0.7 ^a,c %. Moreover, the “Mean DNA (%) in Comet Tail … Endo III” value in the data set on HeLa cells [2] is 10.2 ± 2.0 ^a %. In addition, the “DNA damage, percentage of DNA” value in the data set with Caco-2 cells [5] is reported as 32.8% ± 4.4%.
Turning to `COc1ccc(C2C/C(=N\NC(N)=S)c3c([O][Cu][O]C(C)=O)cc(O)cc3O2)cc1O` (stereo not drawn) [CuHTSC, (E)-acetoxy((4-(2-carbamothioylhydrazono)-7-hydroxy-2-(3-hydroxy-4-methoxyphenyl)chroman-5-yl)oxy)copper], the “Mean DNA (%) in Comet Tail … DSBs” value in the data set with HeLa cells [1] is reported as 6.4 ± 2.3 ^a,c %. The “Mean DNA (%) in Comet Tail … Endo III” value in the data set on HeLa cells [2] is given as 11.6 ± 1.9 ^a %.
`N.N.[Cl][Pt][Cl]` [cisplatin, reference compound]: the “Mean DNA (%) in Comet Tail … DSBs” value with HeLa cells [1] is listed as 30.2 ± 3.4%. For the same compound, the “Mean DNA (%) in Comet Tail … Endo III” value in the data set with HeLa cells [2] is 26.5 ± 3.9%. For the same compound, the “DNA damage, percentage of DNA” value in the data set on LLC-PK1 cells was 73.1% ± 3.3%.
For the compound `COc1ccc(C2CC(=NNC(=O)c3ccncc3)c3c(O)cc(O)cc3O2)cc1O` (stereo not drawn) [HIN, N-[2,3-dihydro-5,7-dihydroxy-2-(3-hydroxy-4-methoxyphenyl)chromen-4-ylidene]isonicotinohydrazide], the “Mean DNA (%) in Comet Tail … DSBs” value in the data set on HeLa cells [1] is on record as 19.5 ± 0.7 ^a %. Further, in the data set with HeLa cells [2], the “Mean DNA (%) in Comet Tail … Endo III” value was 5.3 ± 3.5 ^a %. In addition, the entries for the “DNA damage, percentage of DNA” value in the data set with HeLa cells [3] (1 µM) and in the data set on Caco-2 cells [4] were 28.9% ± 3.5% and 23.1% ± 3.4%, respectively.
As for `COc1ccc(C2C/C(=N\NC(=O)c3ccccc3)c3c([O][Cu][O]C(C)=O)cc(O)cc3O2)cc1O` (stereo not drawn) [CuHHSB, (E)-acetoxy((4-(2-benzoylhydrazono)-7-hydroxy-2-(3-hydroxy-4-methoxyphenyl)chroman-5-yl)oxy)copper], the “Mean DNA (%) in Comet Tail … DSBs” value in the data set on HeLa cells [1] was 14.4 ± 0.7 ^a,b %. For the same compound, the “Mean DNA (%) in Comet Tail … Endo III” value in the data set with HeLa cells [2] is listed as 8.3 ± 2.7 ^a %.
Regarding `COc1ccc(C2CC(=NNC(=O)c3ccccc3)c3c(O)cc(O)cc3O2)cc1O` (stereo not drawn) [HHSB, N-[2,3-dihydro-5,7-dihydroxy-2-(3-hydroxy-4-methoxyphenyl)chromen-4-ylidene]benzhydrazide], in the data set with HeLa cells [2], the “Mean DNA (%) in Comet Tail … Endo III” value is 7.5 ± 3.9 ^a %. Further, the “DNA damage, percentage of DNA” value in the data set on HeLa cells [3] (1 µM) is reported as 28.8% ± 4.1%; in the data set on Caco-2 cells [4], 34.0% ± 4.6%; in the data set on LLC-PK1 cells, 26.3% ± 4.8%.
